# Laboratory results published in patent publication US12343326B2, “Psychoactive medicines and their use for treating psychiatric and neurological conditions and disorders” (Transcend Therapeutics, Inc., priority 2021, dated 2025).
# How the values were obtained:
# Experiment in all cases: β-arrestin based GPCR screen (PathHunter / GPCRmax), agonist mode
# Format in all cases: cell-based
# Set-up in all cases: host or cells: PathHunter cell lines
# 168 GPCRs [1] = target: 168 GPCRs (Homo sapiens, UniProt P61073)
# Method: (§1) For agonist determination, cells were incubated with sample to induce response. […] Vehicle concentration was 1%.
# 168 GPCRs [2] = target: 168 GPCRs (Homo sapiens, UniProt P16473); details: TSHR(L)
# 168 GPCRs (Homo sapiens, UniProt P16473), sequence (P16473 21-764): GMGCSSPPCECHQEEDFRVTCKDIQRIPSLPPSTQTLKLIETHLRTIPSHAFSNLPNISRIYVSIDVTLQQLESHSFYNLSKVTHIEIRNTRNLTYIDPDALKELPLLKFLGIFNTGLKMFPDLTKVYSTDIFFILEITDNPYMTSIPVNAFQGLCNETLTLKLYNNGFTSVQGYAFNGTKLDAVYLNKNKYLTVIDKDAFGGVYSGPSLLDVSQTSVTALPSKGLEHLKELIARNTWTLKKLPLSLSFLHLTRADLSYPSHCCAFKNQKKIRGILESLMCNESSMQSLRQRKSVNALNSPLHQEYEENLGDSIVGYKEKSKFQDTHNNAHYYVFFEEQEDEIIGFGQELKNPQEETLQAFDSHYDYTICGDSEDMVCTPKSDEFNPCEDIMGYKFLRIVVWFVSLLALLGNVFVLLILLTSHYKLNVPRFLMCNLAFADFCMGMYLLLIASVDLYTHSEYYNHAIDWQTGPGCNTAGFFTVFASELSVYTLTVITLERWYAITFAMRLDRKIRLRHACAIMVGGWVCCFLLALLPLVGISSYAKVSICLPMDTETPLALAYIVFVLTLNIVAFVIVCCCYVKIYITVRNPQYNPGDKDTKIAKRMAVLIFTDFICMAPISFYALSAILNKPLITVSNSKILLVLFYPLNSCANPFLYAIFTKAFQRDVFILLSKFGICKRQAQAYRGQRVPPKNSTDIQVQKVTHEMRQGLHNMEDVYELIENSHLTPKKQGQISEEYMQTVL
# Method: as §1
# 168 GPCRs [3] = target: 168 GPCRs (Homo sapiens, UniProt P30989)
# Method: as §1
# 168 GPCRs [4] = target: 168 GPCRs (Homo sapiens, UniProt P08588); details: ADRB1, Agonist
# Method: as §1
# 168 GPCRs [5] = target: 168 GPCRs (Homo sapiens, UniProt O95838); details: GLP2R
# 168 GPCRs (Homo sapiens, UniProt O95838), sequence (O95838 whole entry): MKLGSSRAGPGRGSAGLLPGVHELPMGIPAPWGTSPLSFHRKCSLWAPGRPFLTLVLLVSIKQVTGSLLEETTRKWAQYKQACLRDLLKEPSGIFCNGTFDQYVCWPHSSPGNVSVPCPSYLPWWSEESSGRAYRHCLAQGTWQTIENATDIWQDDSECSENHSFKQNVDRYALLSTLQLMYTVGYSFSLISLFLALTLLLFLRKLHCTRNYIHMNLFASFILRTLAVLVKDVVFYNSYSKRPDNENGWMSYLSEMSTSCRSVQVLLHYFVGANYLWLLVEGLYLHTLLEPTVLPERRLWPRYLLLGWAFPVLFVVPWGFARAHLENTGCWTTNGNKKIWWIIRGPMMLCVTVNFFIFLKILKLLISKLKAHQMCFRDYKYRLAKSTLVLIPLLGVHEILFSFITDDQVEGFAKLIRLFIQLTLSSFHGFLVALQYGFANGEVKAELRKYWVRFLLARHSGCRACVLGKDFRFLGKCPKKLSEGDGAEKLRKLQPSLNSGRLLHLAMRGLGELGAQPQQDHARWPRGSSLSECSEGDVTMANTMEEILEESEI
# Method: as §1
# 168 GPCRs [6] = target: 168 GPCRs (Homo sapiens, UniProt P33032); details: MC5R
# 168 GPCRs (Homo sapiens, UniProt P33032), sequence (P33032 whole entry): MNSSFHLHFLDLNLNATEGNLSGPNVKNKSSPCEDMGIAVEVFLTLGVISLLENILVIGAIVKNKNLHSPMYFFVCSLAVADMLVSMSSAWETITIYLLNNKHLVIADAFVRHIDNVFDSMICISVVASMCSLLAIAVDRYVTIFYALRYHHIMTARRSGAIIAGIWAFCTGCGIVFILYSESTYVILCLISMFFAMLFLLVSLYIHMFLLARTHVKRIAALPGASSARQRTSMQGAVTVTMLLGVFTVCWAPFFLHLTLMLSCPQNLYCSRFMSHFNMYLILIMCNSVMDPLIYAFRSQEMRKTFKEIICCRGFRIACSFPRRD
# Method: as §1
# 168 GPCRs [7] = target: 168 GPCRs (Homo sapiens, UniProt Q9UBY5)
# Method: as §1
# 168 GPCRs [8] = target: 168 GPCRs (Homo sapiens, UniProt Q99788); details: CMKLR1, Agonist
# 168 GPCRs (Homo sapiens, UniProt Q99788), sequence (Q99788 whole entry): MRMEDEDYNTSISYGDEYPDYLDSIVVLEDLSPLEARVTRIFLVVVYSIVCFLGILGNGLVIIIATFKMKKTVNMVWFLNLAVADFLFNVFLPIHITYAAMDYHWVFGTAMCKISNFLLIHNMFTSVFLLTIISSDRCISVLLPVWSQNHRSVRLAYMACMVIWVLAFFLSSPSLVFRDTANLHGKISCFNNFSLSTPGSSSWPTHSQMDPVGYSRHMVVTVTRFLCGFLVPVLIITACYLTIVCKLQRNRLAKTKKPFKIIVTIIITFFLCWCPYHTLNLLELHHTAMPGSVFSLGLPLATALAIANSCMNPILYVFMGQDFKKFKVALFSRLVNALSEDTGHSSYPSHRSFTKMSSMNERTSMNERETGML
# Method: as §1
# 168 GPCRs [9] = target: 168 GPCRs (Homo sapiens, UniProt P35368); details: ADRA1B, Agonist
# 168 GPCRs (Homo sapiens, UniProt P35368), sequence (P35368 whole entry): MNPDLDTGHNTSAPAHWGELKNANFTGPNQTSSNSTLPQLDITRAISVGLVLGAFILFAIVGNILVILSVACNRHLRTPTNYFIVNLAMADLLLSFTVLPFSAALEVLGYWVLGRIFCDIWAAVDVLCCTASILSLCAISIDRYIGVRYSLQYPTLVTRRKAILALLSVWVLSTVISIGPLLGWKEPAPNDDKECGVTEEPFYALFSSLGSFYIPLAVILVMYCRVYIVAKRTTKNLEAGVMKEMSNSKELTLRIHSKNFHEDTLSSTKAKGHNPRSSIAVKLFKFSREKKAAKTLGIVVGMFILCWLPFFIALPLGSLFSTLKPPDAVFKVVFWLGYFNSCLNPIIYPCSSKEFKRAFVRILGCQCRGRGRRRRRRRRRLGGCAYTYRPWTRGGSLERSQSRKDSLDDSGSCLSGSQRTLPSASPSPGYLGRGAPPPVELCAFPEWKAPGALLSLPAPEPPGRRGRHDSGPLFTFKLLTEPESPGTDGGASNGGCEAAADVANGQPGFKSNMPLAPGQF
# Method: as §1
# 168 GPCRs [10] = target: 168 GPCRs (Homo sapiens, UniProt P30874)
# Method: as §1
# 168 GPCRs [11] = target: 168 GPCRs (Homo sapiens, UniProt O95977)
# 168 GPCRs (Homo sapiens, UniProt O95977), sequence (O95977 whole entry): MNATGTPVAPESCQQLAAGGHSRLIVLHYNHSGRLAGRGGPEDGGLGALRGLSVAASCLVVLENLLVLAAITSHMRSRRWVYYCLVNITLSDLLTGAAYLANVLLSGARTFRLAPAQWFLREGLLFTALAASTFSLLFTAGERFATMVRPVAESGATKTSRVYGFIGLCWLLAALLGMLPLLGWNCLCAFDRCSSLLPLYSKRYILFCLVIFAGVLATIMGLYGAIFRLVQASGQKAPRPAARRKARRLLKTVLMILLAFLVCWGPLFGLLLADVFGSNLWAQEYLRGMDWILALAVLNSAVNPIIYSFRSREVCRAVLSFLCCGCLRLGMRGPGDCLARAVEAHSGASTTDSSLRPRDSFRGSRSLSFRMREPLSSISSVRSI
# Method: as §1
# 168 GPCRs [12] = target: T1, 168 GPCRs (Homo sapiens, UniProt Q96RI0)
# T1 sequence (Q96RI0 18-385): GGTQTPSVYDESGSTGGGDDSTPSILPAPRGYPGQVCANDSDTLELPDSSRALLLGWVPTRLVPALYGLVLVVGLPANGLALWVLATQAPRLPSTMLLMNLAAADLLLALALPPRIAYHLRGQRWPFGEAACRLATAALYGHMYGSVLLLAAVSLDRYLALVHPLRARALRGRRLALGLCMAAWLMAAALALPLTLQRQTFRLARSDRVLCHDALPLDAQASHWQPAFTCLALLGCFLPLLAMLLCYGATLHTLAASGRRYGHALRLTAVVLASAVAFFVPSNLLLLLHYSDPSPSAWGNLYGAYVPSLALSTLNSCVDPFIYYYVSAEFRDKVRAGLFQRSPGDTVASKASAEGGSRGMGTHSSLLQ
# Method: as §1
# 168 GPCRs [13] = target: 168 GPCRs (Homo sapiens, UniProt P30556); details: AGTR1, Agonist
# 168 GPCRs (Homo sapiens, UniProt P30556), sequence (P30556 whole entry): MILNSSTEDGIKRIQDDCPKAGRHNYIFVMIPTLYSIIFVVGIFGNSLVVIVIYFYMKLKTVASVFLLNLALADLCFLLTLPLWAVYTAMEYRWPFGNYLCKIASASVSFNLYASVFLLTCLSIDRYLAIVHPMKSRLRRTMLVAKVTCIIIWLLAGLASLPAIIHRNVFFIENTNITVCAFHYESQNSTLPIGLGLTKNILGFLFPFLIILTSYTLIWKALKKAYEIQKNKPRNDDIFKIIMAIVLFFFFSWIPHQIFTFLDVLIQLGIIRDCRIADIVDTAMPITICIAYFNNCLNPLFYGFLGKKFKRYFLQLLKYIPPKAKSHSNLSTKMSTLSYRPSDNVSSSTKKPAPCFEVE
# Method: as §1
# 168 GPCRs [14] = target: 168 GPCRs (Homo sapiens, UniProt P20309); details: CHRM3, Agonist
# 168 GPCRs (Homo sapiens, UniProt P20309), sequence (P20309 whole entry): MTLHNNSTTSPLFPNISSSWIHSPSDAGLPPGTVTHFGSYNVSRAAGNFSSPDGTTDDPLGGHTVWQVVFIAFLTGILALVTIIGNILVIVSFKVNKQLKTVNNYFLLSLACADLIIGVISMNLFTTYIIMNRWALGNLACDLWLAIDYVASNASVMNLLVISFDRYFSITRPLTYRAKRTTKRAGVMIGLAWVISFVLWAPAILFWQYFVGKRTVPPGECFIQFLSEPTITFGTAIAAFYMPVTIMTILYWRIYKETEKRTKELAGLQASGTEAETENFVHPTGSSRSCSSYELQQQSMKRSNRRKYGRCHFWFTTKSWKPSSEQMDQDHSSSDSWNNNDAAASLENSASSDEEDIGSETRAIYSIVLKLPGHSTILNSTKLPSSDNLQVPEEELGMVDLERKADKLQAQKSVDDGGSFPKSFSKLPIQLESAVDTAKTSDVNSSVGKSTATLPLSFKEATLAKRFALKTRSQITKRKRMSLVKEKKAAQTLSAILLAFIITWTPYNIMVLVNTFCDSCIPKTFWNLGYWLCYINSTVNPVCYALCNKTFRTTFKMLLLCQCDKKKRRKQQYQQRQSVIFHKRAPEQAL
# Method: as §1
# 168 GPCRs [15] = target: 168 GPCRs (Homo sapiens, UniProt P34981); details: TRHR
# 168 GPCRs (Homo sapiens, UniProt P34981), sequence (P34981 whole entry): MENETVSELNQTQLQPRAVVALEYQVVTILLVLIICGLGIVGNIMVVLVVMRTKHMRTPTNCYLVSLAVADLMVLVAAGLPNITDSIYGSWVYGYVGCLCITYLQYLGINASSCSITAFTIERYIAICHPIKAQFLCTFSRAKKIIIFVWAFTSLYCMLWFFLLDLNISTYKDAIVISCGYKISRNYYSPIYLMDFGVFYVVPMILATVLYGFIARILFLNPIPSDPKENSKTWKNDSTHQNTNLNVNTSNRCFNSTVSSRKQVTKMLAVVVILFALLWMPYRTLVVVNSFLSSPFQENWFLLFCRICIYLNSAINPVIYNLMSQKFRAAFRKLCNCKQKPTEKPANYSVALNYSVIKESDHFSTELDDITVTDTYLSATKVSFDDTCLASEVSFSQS
# Method: as §1
# 168 GPCRs [16] = target: 168 GPCRs (Homo sapiens, UniProt P28336); details: NMBR
# Method: as §1
# 168 GPCRs [17] = target: 168 GPCRs (Homo sapiens, UniProt P21730); details: C5AR1, Agonist
# Method: as §1
# 168 GPCRs [18] = target: 168 GPCRs (Homo sapiens, UniProt P21731); details: TBXA2R
# 168 GPCRs (Homo sapiens, UniProt P21731), sequence (P21731 whole entry): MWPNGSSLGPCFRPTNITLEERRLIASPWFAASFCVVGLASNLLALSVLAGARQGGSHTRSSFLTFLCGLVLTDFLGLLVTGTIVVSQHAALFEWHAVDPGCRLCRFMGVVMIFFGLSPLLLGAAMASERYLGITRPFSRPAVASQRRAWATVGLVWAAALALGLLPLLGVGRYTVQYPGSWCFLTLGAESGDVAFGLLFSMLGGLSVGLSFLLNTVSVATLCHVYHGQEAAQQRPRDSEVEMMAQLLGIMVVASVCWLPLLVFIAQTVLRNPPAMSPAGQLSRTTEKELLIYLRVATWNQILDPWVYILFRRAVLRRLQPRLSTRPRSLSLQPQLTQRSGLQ
# Method: as §1
# 168 GPCRs [19] = target: 168 GPCRs (Homo sapiens, UniProt P49683); details: PRLHR
# 168 GPCRs (Homo sapiens, UniProt P49683), sequence (P49683 whole entry): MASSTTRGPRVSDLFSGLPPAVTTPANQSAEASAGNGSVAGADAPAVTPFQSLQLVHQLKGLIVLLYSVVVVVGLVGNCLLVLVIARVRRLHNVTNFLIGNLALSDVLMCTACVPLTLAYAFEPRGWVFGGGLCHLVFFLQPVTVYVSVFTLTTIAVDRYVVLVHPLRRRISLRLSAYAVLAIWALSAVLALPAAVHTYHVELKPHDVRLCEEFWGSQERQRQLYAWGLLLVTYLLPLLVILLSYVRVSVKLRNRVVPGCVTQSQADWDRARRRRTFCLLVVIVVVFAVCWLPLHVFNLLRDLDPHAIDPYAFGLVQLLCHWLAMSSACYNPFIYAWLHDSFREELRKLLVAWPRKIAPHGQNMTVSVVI
# Method: as §1
# 168 GPCRs [20] = target: 168 GPCRs (Homo sapiens, UniProt P23945); details: FSHR
# Method: as §1
smiles,measurement,setting,value
"CNC(C)C(=O)c1ccc2c(c1)OCO2 (stereo not shown) [methylone, 3,4-methylenedioxy-N-methylcathinone]",activity at 10 µM,"168 GPCRs [1]; CXCR4, Agonist mode, 10 uM",7%
same,activity at 1 µM,"168 GPCRs [1]; CXCR4, Agonist, 1 uM",-4%
same,activity at 10 µM,"168 GPCRs [2]; Agonist mode, 10 uM",0.7%
same,activity at 1 µM,"168 GPCRs [2]; Agonist, 1 uM",-1.2%
same,activity at 10 µM,"168 GPCRs [3]; NTSR1, Agonist mode, 10 uM",-3.5%
same,activity at 1 µM,"168 GPCRs [3]; NTSR1, Agonist, 1 uM",-4.7%
same,activity at 1 µM,168 GPCRs [4]; 1 uM,-1.7%
same,activity at 10 µM,168 GPCRs [4]; 10 uM,-1.4%
same,activity at 10 µM,"168 GPCRs [5]; Agonist mode, 10 uM",-13%
same,activity at 1 µM,"168 GPCRs [5]; Agonist, 1 uM",-1.5%
same,activity at 10 µM,"168 GPCRs [6]; Agonist mode, 10 uM",8.9%
same,activity at 1 µM,"168 GPCRs [6]; Agonist, 1 uM",-7.9%
same,activity at 10 µM,"168 GPCRs [7]; EDG7, Agonist mode, 10 uM",1.1%
same,activity at 1 µM,"168 GPCRs [7]; EDG7, Agonist, 1 uM",3%
same,activity at 1 µM,168 GPCRs [8]; 1 uM,-0.2%
same,activity at 10 µM,168 GPCRs [8]; 10 uM,-0.3%
same,activity at 1 µM,168 GPCRs [9]; 1 uM,-3.3%
same,activity at 10 µM,168 GPCRs [9]; 10 uM,-2.9%
same,activity at 10 µM,"168 GPCRs [10]; SSTR2, Agonist mode, 10 uM",0.7%
same,activity at 1 µM,"168 GPCRs [10]; SSTR2, Agonist, 1 uM",0%
same,activity at 10 µM,"168 GPCRs [11]; EDG6, Agonist mode, 10 uM",0.3%
same,activity at 1 µM,"168 GPCRs [11]; EDG6, Agonist, 1 uM",-1.7%
same,activity at 10 µM,"168 GPCRs [12]; F2RL3, Agonist mode, 10 uM",7%
same,activity at 1 µM,"168 GPCRs [12]; F2RL3, Agonist, 1 uM",4.3%
same,activity at 1 µM,168 GPCRs [13]; 1 uM,-2.8%
same,activity at 10 µM,168 GPCRs [13]; 10 uM,-1%
same,activity at 1 µM,168 GPCRs [14]; 1 uM,6%
same,activity at 10 µM,168 GPCRs [14]; 10 uM,6%
same,activity at 10 µM,"168 GPCRs [15]; Agonist mode, 10 uM",-2.2%
same,activity at 1 µM,"168 GPCRs [15]; Agonist, 1 uM",-2%
same,activity at 10 µM,"168 GPCRs [16]; Agonist mode, 10 uM",1.2%
same,activity at 1 µM,"168 GPCRs [16]; Agonist, 1 uM",1.1%
same,activity at 1 µM,168 GPCRs [17]; 1 uM,-1%
same,activity at 10 µM,168 GPCRs [17]; 10 uM,-1.3%
same,activity at 10 µM,"168 GPCRs [18]; Agonist mode, 10 uM",-2.95%
same,activity at 1 µM,"168 GPCRs [18]; Agonist, 1 uM",-1.1%
same,activity at 10 µM,"168 GPCRs [19]; Agonist mode, 10 uM",-0.2%
same,activity at 1 µM,"168 GPCRs [19]; Agonist, 1 uM",-2.2%
same,activity at 10 µM,"168 GPCRs [20]; Agonist mode, 10 uM",2.2%
same,activity at 1 µM,"168 GPCRs [20]; Agonist, 1 uM",-1%
